The conditions of test [1]: ref [10]; cited from earlier work.
The format of test [2] is in vivo, Female C57BL/6J mice. The conditions noted are these: glucose 0.35 g/kg i.v. alone; plasma ELISA; n=15. For orientation: An ELISA detects its analyte on a solid surface through an enzyme-linked reagent.

Ends that are not written are not given here.

On to “GLP-1 (HAEGTFTSDVSSYLEGQAAKEFIAWLVKGR; ends and bridges not checked; UniProt P01275 98-127, looked up)”, for which, in test [1], the “Effect on insulin clearance” value is recorded as “diminish insulin clearance” and the “Effect on insulin secretion” value is on record as “stimulate insulin secretion”.
Regarding `OC[C@H]1OC(O)[C@H](O)[C@@H](O)[C@@H]1O` (stereo partly drawn) [glucose], the “Insulin peak concentration at 1 min” value in test [2] is 0.9 ± 0.2 nmol/L.

Source of the values: paper PMC5272823 (Peptides, 2016).
